Assay results: US9289443B2, “Pharmaceutical composition and method for preventing or treating hepatitis C” (INDUSTRIAL TECHNOLOGY RESEARCH INSTITUTE, priority 2010, dated 2016)

Assays:
[1] = system: Huh-luc/neo-ET cells; experiment: Cell cytotoxic test (MTT) on Huh-luc/neo-ET cells; format: cell-based; conditions: concentration for 15% cell kill, two-day culture
Experimental: (§1) Cell Cytotoxic Test on Huh-luc/noe-ET Cells
(§2) Huh-luc/neo-ET cells with a concentration of 2.5×10^4 cells/100 μl/well were seeded into a 96 well culture plate (Corning Incorporation COSTAR, 3599) and placed into a cell incubator for culturing.
(§3) The next day, the oleanolic acid derivatives as listed in the following Tables 1 and 2 were diluted with a DMEM culture medium to the concentrations of 28.73 μg/ml, 9.57 μg/ml, 3.19 μg/ml, 1.06 μg/ml, 0.35 μg/ml, 0.11 μg/ml, 0.039 μg/ml and 0.013 μg/ml, respectively, or diluted to the concentrations of 114.92 μg/ml, 38.33 μg/ml, 12.77 μg/ml, 4.25 μg/ml, 1.42 μg/ml, 0.46 μg/ml, 0.16 μg/ml and 0.057 μg/ml, respectively. The initial medium in the 96 well culture plate was sucked out by a vacuum pump (DOAT-704AA) without removing the cells. Then, the culture medium containing the oleanolic acid derivatives were added into the 96 well culture plate containing 100 μl/well of the cells as the experiment groups, while the untreated culture mediums were added to the cells as a control.
(§4) After a two-day culture, the medium was removed and each well containing cells was washed by 100 μl of 1×PBS (1 mM KH2PO4, 10 mM Na2HPO4, 137 mM NaCl, 2.7 mM KCl) twice. Precipitates were recorded and PBS was removed. 50 μl of the medium containing 0.5 mg/ml of MTT (Sigma, M2128) was added into each well of the 96 well culture plate. The 96 well culture plate was placed in a CO2 culture incubator for 1 hour. Subsequently, 150 μl of DMSO (Riedel-de Haül, 60153) was added to each well of the 96 well culture plate and vortexed (KS shaker Type 670) to thoroughly mix the resulting purple precipitates. The 96 well culture plate was then placed in a continuous wave length microwell plate analysis system (Molecular Devices, SPECTRAMAX 190) to measure the absorbance of cells at a wavelength of 560 nm.
(§5) The average absorbance of the control was set as 100% of the cell survival rates (%) to calculate the cell survival rates (%) of the experiment groups with different concentrations of the oleanolic acid derivatives.
(§6) The cell survival rate was calculated by the following formula: Absorbance of the experiment group/Absorbance of the control×100%
(§7) The data of the cell survival rates for all experiment groups were plotted on an x-y graph to see the distribution. A trend line was obtained. […]

[2] = Cell cytotoxic test (MTT) on Huh-luc/neo-ET cells; format: cell-based; conditions: human, concentration for 50% cell kill, two-day culture
Experimental: as §1, §2, §3, §4, §5, §6, §7

[3] = system: HCV replicon system (Huh-luc/neo-ET cell carrying I389luc-ubi-NS3-3'/ET); experiment: Inhibition of the HCV replication by determining the firefly luciferase activity (HCV replicon system); format: cell-based, Hepatitis C virus
Text: HCV replicon system was used to test the effects of compounds on the treatment and prevention of hepatitis C. The HCV replicon system has been acknowledged as a screening tool for new drugs (Lohmann, V. et al., 1999, Replication of subgenomic hepatitis C virus RNAs in hepatoma cell line, Science. Vol. 285, 110-113; Bartenschlager, R. 2002, Hepatitis C virus replicons: potential role for drug development, Nature Reviews/Drug Discovery. Vol. 1, 911-916; Vorlijk, J. M. et al., 2003, A replicon-based bioassay for the measurement of interferons in patients with chronic hepatitis C, Journal of Virological Methods. 110:201-209). The HCV replicon system includes a Huh-luc/neo-ET cell carrying I389luc-ubi-NS3-3′/ET gene construct which monitors the replicative capability of the HCV. In the HCV replicon system, a firefly luciferase-ubiquitin-neomycin fusion protein is expressed by the translation of the internal ribosomal entry site (IRES) of the HCV, and the hepatitis C viral nonstructural proteins (NS3-5B), which includes protease, helicase and polymerase, are expressed by the translation of the IRES of the encephalomyocarditis virus (EMCV).
The IRES of the hepatitis C virus or the hepatitis C viral nonstructural proteins consist of a replication complex. When the replication complex is affected by the candidate compound, the activity of the HCV replicon system is inhibited and the activity of the luciferase is reduced. Accordingly, the inhibition of the HCV can be estimated by determining the activity of the intensity of the luciferase expressed by the Huh-luc/noe-ET cell.
Inhibition of the HCV Replication by Determining the Firefly Luciferase Activity
as §2
The oleanolic acid derivatives as listed in Table 2 were co-cultured with Huh-luc/neo-ET cells for 2 days. The mediums were washed twice by 100 μl of 1×PBS (1 mM KH2PO4, 10 mM Na2HPO4, 137 mM NaCl, 2.7 mM KCl) and PBS was removed. 35 μl of 1× passive lysis buffer (Promega, E1941) was added to the cells and vortexed for 10 minutes to thoroughly lysis the cells.
30 μl/well of the cell suspension was then added to a 96 well white plate (NUNC, 236108) for the measurement of the luciferase activity. Subsequently, 40 μl/well of luminescence analysis buffer and 20 μl/well of luminescence substrate (1 mM D-Luciferin) were added into the 96 well white plates. The luciferase activity (Rlu/s) was measured by a microplate luminescence meter (Berthold, MPL4) immediately.
The luciferase activity of the control was set as a standard to calculate the inhibition rates (%) of HCV of the experiment groups. The inhibition rates was calculated by the following formula: […]
After the test compounds were serial diluted and the inhibition rates of the HCV replication were determined at different concentrations, the concentration at 50% inhibition of the HCV replication (IC50) was calculated by grafit5 software (Erithacus Software).
For each experiment, 0.5 ng/ml and 0.1 ng/ml of the PEG IFN alpha-2a were used as positive controls for the IC50 test. Meanwhile, 1 μg/ml of cyclosporine A (CsA) was also used as a positive control for the IC50 test.

Compound `C=CC(C)(CC/C=C(\CO)C(=O)OC1CC2(C(=O)OC3OCC(OC4CC(CO)C(O)C(OC5OC(CO)C(OC6OC(C)C(O)C(O)C6O)C(O)C5O)C4O)C(O)C3O)CCC3(C)C(=CCC4C5(C)CCC(OC6OC(CO)C(OC7OC(CO)C(O)C(OC8OCC(O)C(O)C8O)C7O)C(O)C6O)C(C)(C)C5CCC43C)C2CC1(C)C)OC1OC(C)C(O)C(O)C1O` (centres unmarked) [A27] has a CC15 [1] of 19.44 µM, a CC50 at 2 days [2] of 76.7 µM and an inhibition at 10 µM ([3]; Hepatitis C virus, Huh-luc/neo-ET, 48 h, compound concentration 10 μM, 2 days co-culture, luciferase activity, read-out: Inhibition rate (%)) of 96.9 ± 0.6%. The IC50 ([3]; Hepatitis C virus, concentration for 50% inhibition of the HCV replication, Huh-luc/neo-ET replicon cells, read-out: IC50) was 0.72 ± 0.07 µM and the “EW (CC50/IC50)” value ([3]; ratio of CC50/IC50) was 106.56.
